A word on the pIC50: it is the negative decadic logarithm of the IC50, by convention in mol/L.

The results in this text go back to patent publication US20100035943A1, “Oxa-and thiadiazoles and their use as metalloproteinase inhibitors” (VERNALIS (OXFORD) LTD, priority 2002, published 2010).

pIC50: −log10 of the molar value.

Common to all, as to format: biochemical
The target of one assay is 92 kDa gelatinase (MMP9) (Homo sapiens, UniProt P14780). Put plainly: MMP9 enzyme inhibition assay (fluorogenic peptide substrate McaPLGLDpaAR). Particulars: recombinant human 92 kDa gelatinase, 37° C., 2 hours. The procedure:
Compounds were tested for inhibitory activity against 92 kDa gelatinase (MMP9) in an assay using a coumarin-labelled peptide substrate, (7-methoxycoumarin-4-yl)acetyl-Pro-Leu-Gly-Leu-(3-[2,4-dinitrophenyl]-L-2,3-diaminopropionyl)-Ala-Arg-NH2 (McaPLGLDpaAR) (Knight et al, FEBS Lett. 1992; 263-266).
(§1) Stock solutions were made up as follows: • Assay Buffer: 100 mM Tris-HCl pH 7.6 containing 100 mM NaCl, 10 mM CaCl2, and 0.05% Brij 35 • Substrate: 0.4 mM McaPLGLDpaAR (from Bachem) (0.437 mg/ml) stock solution in 100% DMSO (stored at −20° C.). Dilute to 8 μM in assay buffer. • Enzyme: Recombinant human 92 kDa gelatinase (MMP-9; APMA (4-aminophenyl • mercuric acetate)—activated if necessary) appropriately diluted in assay buffer.
(§2) Test Compounds were prepared initially as 10 mM compound solution in 100% DMSO, diluted to 1 mM in 100% DMSO, then serially diluted 3-fold in 100% DMSO across columns 1-10 of a 96-well microtitre plate Assay concentration range, 100 μM (column 1) to 5.1 nM (column 10)
(§3) The assay was performed in a total volume of 100 μl per well in 96-well microtitre plates. Activated enzyme (20 μl) was added to the wells followed by 20 μl of assay buffer. Appropriate concentrations of test compounds dissolved in 10 μl of DMSO were then added followed by 50 μl of McaPLGLDpaAR (8 μM, prepared by dilution of DMSO stock in assay buffer). For each assay ten concentrations of test compound were examined in duplicate. Control wells lack either enzyme or test compound. The reactions were incubated at 37° C. for 2 hours. The fluorescence at 405 nm was measured immediately with an SLT Fluostar fluorometer (SLT Labinstruments GmbH, Grödig, Austria) using 320 nm excitation, without stopping the reaction.
(§4) The effect of the test compound was determined from the dose response curve generated by the 10 duplicate concentrations of inhibitor. The IC50 (the concentration of compound required to give a 50% decrease in enzyme activity) was obtained by fitting data to the equation, Y=a+((b−a)/(1+(c/X)^d)). (Y=inhibition achieved for a particular dose; X=the dose in nM; a=minimum y or zero % inhibition; b=maximum y or 100% inhibition; c=is the IC50; d=is the slope). The result was rounded to one significant figure.

For another assay, the target named is metalloelastase (MMP12) (Homo sapiens, UniProt P39900). Nature of the assay: MMP12 enzyme inhibition assay (fluorogenic peptide substrate McaPLGLDpaAR). The note with it: protocol as for MMP9 assay. The protocol:
as §1, §2, §3, §4
Compounds were tested for inhibitory activity against metalloelastase (MMP12) in an assay using a coumarin-labelled peptide substrate, (7-methoxycoumarin-4-yl)acetyl-Pro-Leu-Gly-Leu-(3-[2,4-dinitrophenyl]-L-2,3-diaminopropionyl)-Ala-Arg-NH2 (McaPLGLDpaAR) (Knight et al, FEBS Lett. 1992; 263-266). The protocol for this assay was as described for the MMP9 assay above.

A further assay deals with T1, collagenase (MMP1) (Homo sapiens, UniProt P03956).
T1 sequence (P03956 100-469): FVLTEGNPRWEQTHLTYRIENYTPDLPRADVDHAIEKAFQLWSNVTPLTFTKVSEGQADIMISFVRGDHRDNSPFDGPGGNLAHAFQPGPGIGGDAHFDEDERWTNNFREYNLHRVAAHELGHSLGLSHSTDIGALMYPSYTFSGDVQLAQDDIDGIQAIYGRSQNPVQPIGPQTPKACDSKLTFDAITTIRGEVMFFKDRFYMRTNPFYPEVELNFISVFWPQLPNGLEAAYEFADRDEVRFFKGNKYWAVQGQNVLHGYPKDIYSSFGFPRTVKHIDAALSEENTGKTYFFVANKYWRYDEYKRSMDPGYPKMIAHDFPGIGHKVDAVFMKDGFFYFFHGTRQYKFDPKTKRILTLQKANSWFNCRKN
Nature of the assay: MMP1 enzyme inhibition assay (fluorogenic peptide substrate McaPLGLDpaAR). The note with it: protocol as for MMP9 assay. The procedure: as §1, §2, §3, §4
• Compounds were tested for inhibitory activity against collagenase (MMP1) in an assay using a coumarin-labelled peptide substrate, (7-methoxycoumarin-4-yl)acetyl-Pro-Leu-Gly-Leu-(3-[2,4-dinitrophenyl]-L-2,3-diaminopropionyl)-Ala-Arg-NH2 (McaPLGLDpaAR) (Knight et al, FEBS Lett. 1992; 263-266). The protocol for this assay was as described for the MMP9 assay above.

Sequence of 92 kDa gelatinase (MMP9) (P14780 107-707 limits assumed): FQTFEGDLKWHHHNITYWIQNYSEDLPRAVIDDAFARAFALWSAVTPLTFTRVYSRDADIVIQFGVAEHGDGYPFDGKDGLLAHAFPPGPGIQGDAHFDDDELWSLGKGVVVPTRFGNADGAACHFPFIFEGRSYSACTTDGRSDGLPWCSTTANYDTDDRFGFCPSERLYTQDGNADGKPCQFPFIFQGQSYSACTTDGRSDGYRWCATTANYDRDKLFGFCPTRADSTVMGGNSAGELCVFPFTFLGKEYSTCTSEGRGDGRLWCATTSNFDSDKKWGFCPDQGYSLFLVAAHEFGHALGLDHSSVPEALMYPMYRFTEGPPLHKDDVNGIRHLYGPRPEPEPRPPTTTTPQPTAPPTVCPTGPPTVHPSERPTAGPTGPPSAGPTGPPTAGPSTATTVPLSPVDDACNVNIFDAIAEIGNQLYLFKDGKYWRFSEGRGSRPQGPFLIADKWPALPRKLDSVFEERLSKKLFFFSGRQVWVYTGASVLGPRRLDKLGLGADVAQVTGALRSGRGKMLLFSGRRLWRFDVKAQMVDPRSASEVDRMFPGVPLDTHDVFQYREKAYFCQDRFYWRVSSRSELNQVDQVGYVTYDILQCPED
Sequence of metalloelastase (MMP12) (P39900 106-470): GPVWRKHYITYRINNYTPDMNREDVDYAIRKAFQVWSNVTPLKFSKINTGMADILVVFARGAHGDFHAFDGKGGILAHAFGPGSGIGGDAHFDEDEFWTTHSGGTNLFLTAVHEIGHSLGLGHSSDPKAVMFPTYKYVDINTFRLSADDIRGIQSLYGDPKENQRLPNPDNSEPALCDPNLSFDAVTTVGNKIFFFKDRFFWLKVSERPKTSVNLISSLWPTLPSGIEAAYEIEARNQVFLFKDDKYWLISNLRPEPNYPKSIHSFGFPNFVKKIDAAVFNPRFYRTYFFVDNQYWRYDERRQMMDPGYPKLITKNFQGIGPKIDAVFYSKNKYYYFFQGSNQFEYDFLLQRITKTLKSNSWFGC

On to `CC(C)C[C@@H](C(=O)N[C@H](c1noc(-c2ccco2)n1)C(C)(C)C)[C@H](O)C(=O)O` [Example 30, 3R-[1S-(5-Furan-2-yl-[1,2,4]oxadiazol-3-yl)-2,2-dimethyl-propylcarbamoyl]-2S-hydroxy-5-methyl-hexanoic Acid], for which the figures for the pIC50 at 92 kDa gelatinase (MMP9), at metalloelastase (MMP12) and against collagenase (MMP1) were less than 5.00, 5.00 to 6.00 and less than 5.00, respectively.

As to `CCCCCCCCCCCCCCCC[C@H](CC(=O)O)C(=O)N[C@H](c1nc(-c2ccccc2)no1)C(C)(C)C` [Example 27, 3R-[2,2-Dimethyl-1S-(3-phenyl-[1,2,4]oxadiazol-5-yl)-propylcarbamoyl]-nonadecanoic Acid], the pIC50 on 92 kDa gelatinase (MMP9) and at metalloelastase (MMP12) was less than 5.00 throughout.

Regarding `CC(C)(C)[C@H](NC(=O)[C@H](CCCc1ccc(Cl)cc1)CC(=O)O)c1noc(-c2ccccc2)n1` [Example 28, 6-(4-Chloro-phenyl)-3R-[2,2-dimethyl-1S-(5-phenyl-[1,2,4]oxadiazol-3-yl)-propylcarbamoyl]-hexanoic Acid], at metalloelastase (MMP12), the negative logarithm of the IC50 (pIC50) is less than 5.00.

Compound `C=CC[C@H](C(=O)NO)[C@@H](CC(C)C)C(=O)N[C@@H](Cc1ccccc1)c1nc(C)no1` [Example 22, 2S-Allyl-5-methyl-3R-[2-phenyl-1S-(3-methyl-[1,2,4]oxadiazol-5-yl)-ethylcarbamoyl]-hexanohydroxamic Acid] showed a pIC50 on collagenase (MMP1) of more than 7.00.

`CC(C)c1noc([C@@H](NC(=O)[C@H](CC2CCCC2)[C@H](O)C(=O)NO)C(C)(C)C)n1` [Example 32, 2R-Cyclopentylmethyl-3S,N4-dihydroxy-N1-[1S-(3-isopropyl-[1,2,4]oxadiazol-5-yl)-2,2-dimethyl-propyl]-succinamide]: the pIC50 on 92 kDa gelatinase (MMP9), against metalloelastase (MMP12) and on collagenase (MMP1) was more than 7.00 each time.

Regarding `C=CC[C@H](C(=O)NO)[C@@H](CC(C)C)C(=O)N[C@@H](Cc1ccccc1)c1nc(C(C)C)no1` [Example 21, 2S-Allyl-5-methyl-3R-[2-phenyl-1S-(3-isopropyl-[1,2,4]oxadiazol-5-yl)-ethylcarbamoyl]-hexanohydroxamic Acid], the pIC50 on 92 kDa gelatinase (MMP9) was more than 7.00; at metalloelastase (MMP12), more than 7.00; at collagenase (MMP1), 6.00 to 7.00.

`CC(C)C[C@@H](C(=O)N[C@H](c1noc(-c2cccs2)n1)C(C)(C)C)[C@H](O)C(=O)O` [Example 29, 3R-[2,2-Dimethyl-1S-(5-thiophen-2-yl-[1,2,4]oxadiazol-3-yl)-propylcarbamoyl]-2S-hydroxy-5-methyl-hexanoic Acid]: the pIC50 at 92 kDa gelatinase (MMP9) was 5.00 to 6.00; on metalloelastase (MMP12) it was 6.00 to 7.00; at collagenase (MMP1), 5.00 to 6.00.

On to `Cc1ccc(-c2nc([C@@H](NC(=O)[C@H](CC(C)C)[C@H](O)C(=O)NO)C(C)(C)C)no2)cc1` [Example 15, 2S-Hydroxy-3R-[1S-(5-p-tolyl-[1,2,4]oxadiazol-3-yl)-2,2-dimethyl-propylcarbamoyl]-5-methyl Hexanohydroxamic Acid], for which the figures for the pIC50 at 92 kDa gelatinase (MMP9), on metalloelastase (MMP12) and at collagenase (MMP1) were 6.00 to 7.00, more than 7.00 and 6.00 to 7.00, respectively.

On to `CC(C)(C)[C@H](NC(=O)[C@H](C/C=C/c1ccccc1)[C@H](O)C(=O)NO)c1nc(-c2ccccc2)no1` [Example 31, N4-[2,2-Dimethyl-1S-(3-phenyl-[1,2,4]oxadiazol-5-yl)-propyl]-2S,N1-dihydroxy-3R-(3-phenyl-allyl)-succinamide], for which the pIC50 was less than 5.00 on 92 kDa gelatinase (MMP9), 6.00 to 7.00 against metalloelastase (MMP12) and less than 5.00 against collagenase (MMP1).

As for `CCOc1ccc(CCC[C@@H](C(=O)N[C@H](c2noc(-c3ccco3)n2)C(C)(C)C)[C@H](O)C(=O)NO)cc1` [Example 35, 2R-[3-(4-Ethoxy-phenyl)-propyl]-N1-[1S-(5-furan-2-yl-[1,2,4]oxadiazol-3-yl)-2,2-dimethyl-propyl]-3S,N4-dihydroxy-succinamide], the pIC50 at 92 kDa gelatinase (MMP9) was more than 7.00; against metalloelastase (MMP12) it was more than 7.00; at collagenase (MMP1), less than 5.00.

For the compound `CC(C)C[C@@H](C(=O)N[C@H](c1nc(-c2ccccc2)no1)C(C)C)[C@H](O)C(=O)NO` [Example 19, 2S, N1-Dihydroxy-3R-isobutyl-N4-[2-methyl-1S-(3-phenyl-[1,2,4]oxadiazol-5-yl)-propyl]-succinamide], the negative logarithm of the IC50 (pIC50) is 6.00 to 7.00 on 92 kDa gelatinase (MMP9), more than 7.00 against metalloelastase (MMP12) and 6.00 to 7.00 at collagenase (MMP1).

On to `CC(C)C[C@@H](C(=O)N[C@H](c1noc(Cc2cccs2)n1)C(C)(C)C)[C@H](O)C(=O)NO` [Example 7, 2S-Hydroxy-3R-[1S-(5-thiopen-2-ylmethyl-[1,2,4]oxadiazol-3-yl)-2,2-dimethyl-propylcarbamoyl]-5-methyl Hexanohydroxamic Acid], for which the results for the pIC50 on 92 kDa gelatinase (MMP9), on metalloelastase (MMP12) and on collagenase (MMP1) were 5.00 to 6.00, 6.00 to 7.00 and 5.00 to 6.00, respectively.

With `CCOc1ccc(CCC[C@@H](C(=O)N[C@H](c2noc(-c3cccs3)n2)C(C)(C)C)[C@H](O)C(=O)NO)cc1` [Example 3], the figures for the pIC50 on 92 kDa gelatinase (MMP9), at metalloelastase (MMP12) and on collagenase (MMP1) were more than 7.00, more than 7.00 and less than 5.00, respectively.

As for `CCCCCCCCCCCCCC[C@H](CC(=O)O)C(=O)N[C@H](c1nc(-c2ccccc2)no1)C(C)(C)C` [Example 26, 3R-[2,2-Dimethyl-1S-(3-phenyl-[1,2,4]oxadiazol-5-yl)-propylcarbamoyl]-heptadecanoic Acid], the pIC50 on 92 kDa gelatinase (MMP9) and against metalloelastase (MMP12) was less than 5.00 throughout.

As to `CC(C)C[C@@H](C(=O)N[C@H](c1noc(C2CC2)n1)C(C)(C)C)[C@H](O)C(=O)NO` [Example 16, 2S-Hydroxy-3R-[1S-(5-cyclopropyl-[1,2,4]oxadiazol-3-yl)-2,2-dimethyl-propylcarbamoyl]-5-methyl Hexanohydroxamic Acid], the pIC50 was 6.00 to 7.00 at 92 kDa gelatinase (MMP9), more than 7.00 against metalloelastase (MMP12) and 6.00 to 7.00 against collagenase (MMP1).

Take `CCc1nc([C@@H](NC(=O)[C@H](CC(C)C)[C@H](O)C(=O)NO)C(C)(C)C)no1` [Example 8, 2S-Hydroxy-3R-[1S-(5-ethyl-[1,2,4]oxadiazol-3-yl)-2,2-dimethyl-propylcarbamoyl]-5-methyl Hexanohydroxamic Acid]: the negative logarithm of the IC50 (pIC50) is 6.00 to 7.00 at 92 kDa gelatinase (MMP9), more than 7.00 against metalloelastase (MMP12) and 6.00 to 7.00 at collagenase (MMP1).

Consider `C=CC[C@H](C(=O)NO)[C@@H](CC(C)C)C(=O)N[C@@H](Cc1ccccc1)c1nc(-c2ccccc2)no1` [Example 20, 2S-Allyl-5-methyl-3R-[2-phenyl-1S-(3-phenyl-[1,2,4]oxadiazol-5-yl)-ethylcarbamoyl]-hexanohydroxamic Acid], for which the pIC50 at 92 kDa gelatinase (MMP9) was more than 7.00; at metalloelastase (MMP12), more than 7.00; against collagenase (MMP1), 6.00 to 7.00.

Regarding `CC(C)C[C@@H](C(=O)N[C@H](c1noc(CC2CCCC2)n1)C(C)(C)C)[C@H](O)C(=O)NO` [Example 6, 2S-Hydroxy-3R-[1S-(5-cyclopentylmethyl-[1,2,4]oxadiazol-3-yl)-2,2-dimethyl-propylcarbamoyl]-5-methyl Hexanohydroxamic Acid], the pIC50 is 5.00 to 6.00 on 92 kDa gelatinase (MMP9), more than 7.00 on metalloelastase (MMP12) and 6.00 to 7.00 on collagenase (MMP1).
